Legend:
ABUTH = experiment: greenhouse post-emergence herbicidal test, ABUTH; format: in vivo, Abutilon theophrasti; details: post-emergence method, application rate 1 kg/ha, scale from 0 to 100
Text: (§1) The seeds of the test plants were sown separately for each species. For the post-emergence treatment, the test plants were first grown to a height of 3 to 15 cm, depending on the plant habit, and only then treated with the active ingredients which had been suspended or emulsified in water. For this purpose, the test plants were either sown directly and grown in the same containers, or they were first grown separately as seedlings and transplanted into the test containers a few days prior to treatment. Depending on the species, the plants were kept at 10-25° C. or 20-35° C. The test period extended over 2 to 4 weeks. During this time, the plants were tended, and their response to the individual treatments was evaluated. Evaluation was carried out using a scale from 0 to 100. 100 means no emergence of the plants, or complete destruction of at least the aerial moieties, and 0 means no damage, or normal course of growth. A good herbicidal activity is given at values of at least 70 and a very good herbicidal activity is given at values of at least 85. [table]

ALOMY = experiment: greenhouse post-emergence herbicidal test, ALOMY; format: in vivo, Alopecurus myosuroides; details: post-emergence method, application rate 0.25 kg/ha, scale from 0 to 100
Text: as §1

Row | SMILES | herbicidal activity against ABUTH (ABUTH) | herbicidal activity against ALOMY (ALOMY)
1 | Cc1nonc1NC(=O)c1ccc(Cl)c2ncccc12 [I′.A-113] | good herbicidal activity (A good herbicidal activity is given at values of at least 70) | –
2 | COc1nonc1NC(=O)c1ccc2c(c1Cl)S(=O)(=O)CCC2(C)C [I″.A-8] | – | very good herbicidal activity (a very good herbicidal activity is given at values of at least 85)
